Reference: patent US4260606A, “3-Methyleneazetidine derivatives” (A. H. Robins Company, Inc., priority 1979, dated 1981)
Several values for one entry are separate records, joined by “and”; a condition that tells them apart may be missing. Equal values may be shown once. Read-outs that look alike come from different tables or passages of the source.

Tested on: Tetrabenazine-Induced Ptosis
Assay: Blockade of Tetrabenazine-Induced Ptosis in Mice (anti-tetrabenazine test)
Type: in vivo, mice (ICR-DUB strain)
Conditions: for ED50: Mus musculus, ip, read-out: ED50 (95% Confidence Limits), blockade of tetrabenazine-induced ptosis
Protocol: Antidepressant agents block many of the behavioral and physiological effects of tetrabenazine and reserpine, such as motor depression, hypothermia, and ptosis. […] Thirty minutes later the presence or absence of complete eyelid closure (ptosis) is assessed in each animal. For compounds which produced blockage of ptosis in all animals, and ED50 value is obtained using a minimum of three geometrically spaced doses with five mice/dose.

[1] = mice, IP, 30 minutes prior to tetrabenazine 32 mg/kg IP, ptosis assessed thirty minutes later, probit analysis, 95% confidence limits

Compound: CCOc1ccccc1OCC1CNCCO1 (stereo not drawn) [viloxazine]
- ED50: 1.5 mg/kg

Compound: CN(C)CCCN1c2ccccc2CCc2ccccc21 [imipramine]
- ED50 [1]: 0.3 mg/kg
- ED50 (95% Confidence Limits), blockade of tetrabenazine-induced ptosis [1]: 0.4 (0.2-0.9) mg/kg IP and 0.5 (0.2-1.2) mg/kg IP
